Experimental data from the supplement of paper PMC13380429.

Key:
Settings in all cases: 72 h
Caco-2 [1] = test: cell viability relative to DMSO; higher = less toxic
Calu-3 [2] = test: as above
HepG2 [3] = test: as above
U2OS [4] = test: as above
Vero E6 [5] = test: as above
Caco-2 [6] = test: relative viability EC50 (midpoint between 100% and the lowest measured viability); higher = less toxic
Calu-3 [7] = test: as above
HepG2 [8] = test: as above
U2OS [9] = test: as above
Vero E6 [10] = test: as above
Caco-2 [11] = test: drug sensitivity score (DSS) for viability; higher = more toxic; extreme values may be limits of the assay
Calu-3 [12] = test: as above
HepG2 [13] = test: as above
U2OS [14] = test: as above
Vero E6 [15] = test: as above

SMILES | cell viability (Caco-2 [1]; 1 nM) [%] | cell viability (Caco-2 [1]; 10 nM) [%] | cell viability (Caco-2 [1]; 100 nM) [%] | cell viability (Caco-2 [1]; 1000 nM) [%] | cell viability (Caco-2 [1]; 10000 nM) [%] | cell viability (Calu-3 [2]; 1 nM) [%] | cell viability (Calu-3 [2]; 10 nM) [%] | cell viability (Calu-3 [2]; 100 nM) [%] | cell viability (Calu-3 [2]; 1000 nM) [%] | cell viability (Calu-3 [2]; 10000 nM) [%] | cell viability (HepG2 [3]; 1 nM) [%] | cell viability (HepG2 [3]; 10 nM) [%] | cell viability (HepG2 [3]; 100 nM) [%] | cell viability (HepG2 [3]; 1000 nM) [%] | cell viability (HepG2 [3]; 10000 nM) [%] | cell viability (U2OS [4]; 1 nM) [%] | cell viability (U2OS [4]; 10 nM) [%] | cell viability (U2OS [4]; 100 nM) [%] | cell viability (U2OS [4]; 1000 nM) [%] | cell viability (U2OS [4]; 10000 nM) [%] | cell viability (Vero E6 [5]; 1 nM) [%] | cell viability (Vero E6 [5]; 10 nM) [%] | cell viability (Vero E6 [5]; 100 nM) [%] | cell viability (Vero E6 [5]; 1000 nM) [%] | cell viability (Vero E6 [5]; 10000 nM) [%] | relative viability EC50 (Caco-2 [6]) [µM] | relative viability EC50 (Calu-3 [7]) [µM] | relative viability EC50 (HepG2 [8]) [µM] | relative viability EC50 (U2OS [9]) [µM] | relative viability EC50 (Vero E6 [10]) [µM] | drug sensitivity score (Caco-2 [11]) | drug sensitivity score (Calu-3 [12]) | drug sensitivity score (HepG2 [13]) | drug sensitivity score (U2OS [14]) | drug sensitivity score (Vero E6 [15])
O=C(O)c1cccnc1 [niacin] | 91.6 | 96.7 | 94.2 | 103 | 103 | 86.8 | 103 | 98.9 | 109 | 99.2 | 113 | 105 | 114 | 97.9 | 106 | 93.8 | 98.2 | 95.3 | 97.1 | 102 | 99.4 | 98.7 | 96.3 | 91.1 | 101 | > 10 | > 10 | > 10 | > 10 | > 10 | 0 | 0 | 0 | 0 | 0
CCCC(=O)C1CCN(c2ncnc3c2CN(C(=O)c2ccc(-c4ccccc4)cc2)CC3)CC1 [PK-THPP] | 105 | 99.8 | 100 | 100 | 75.3 | 106 | 101 | 98.9 | 105 | 101 | 98.9 | 99.1 | 91.2 | 94.9 | 93.6 | 106 | 98.9 | 103 | 97 | 95.6 | 102 | 105 | 99.7 | 104 | 98.3 | > 10 | > 10 | > 10 | > 10 | > 10 | 0.9 | 0 | 0 | 0 | 0
Cc1c(NC(=O)c2cc3c(s2)CCCC3)cccc1-c1cn(C)c(=O)c(Nc2ccc(C3C(=O)N(C)CCN3C)cc2)n1 (stereo in doubt) [GDC-0834] | 104 | 98.3 | 99.9 | 96.3 | 74.6 | 96.6 | 100 | 96.2 | 95.4 | 95.8 | 106 | 95.6 | 94.7 | 107 | 97.2 | 103 | 99.1 | 98.5 | 101 | 92.7 | 105 | 101 | 104 | 97.4 | 105 |  | > 10 | > 10 | > 10 | > 10 | 1.5 | 0 | 0 | 0 | 0
